{
  "source": "paper PMC7031302",
  "about": "“Design and synthesis of new energy restriction mimetic agents: Potent anti-tumor activities of hybrid motifs of aminothiazoles and coumarins” (Scientific Reports, 2020)",
  "key": {"HT-29 [1]": {"tested_on": "HT-29", "assay": "Glucose uptake assay, HT-29", "format": "cell-based, Human", "details": "HT-29, 16 h treatment, dose-dependent", "from_the_text": "(§1) According to previous studies, ERMAs inhibited glucose utilization in cancer cells[13],[19]. Therefore, we investigated glucose uptake (Fig. 5A) upon treatment with 9b and 9f in HT-29 and HCT116 cells at different concentrations based on the IC50 of each compound. […] This effect is known to result in the accumulation of reactive oxygen species (ROS) and could play a role in glucose deprivation-induced cytotoxicity and oxidative stress in cancer cells. […] The observed increase in ROS levels could lead to oxidative stress and extensive cell death in the absence of NADPH detoxification.\nCRC cells (1 × 10^4) were seeded into a 96-well plate overnight. Cells were treated with test compounds or vehicle (negative control) glucose-free RPMI-1640 medium for 16 h; then, the cells were incubated with 2 mM 2-DG for 10 minutes. Eventually, glucose uptake of cells was measured using Glucose Uptake-Glo Assay (Promega, Madison, WI, USA) according to the manufacturer’s instructions. Luminescence was measured post 2 h of incubation at room temperature using Varioskan Flash multimode reader (Thermo Scientific). Glucose uptake was normalized to the total protein content in the samples using DC protein assay kit (Bio-Rad, Hercules, CA, USA)."}, "HCT116": {"tested_on": "HCT116", "assay": "ROS-Glo H2O2 assay, HCT116", "format": "cell-based, Human", "details": "HCT116, 6 h incubation", "from_the_text": "as §1\n(§2) NADPH/NADP+ and ROS concentrations were measured using the NADP/NADPH-Glo Assay Kit (Promega, Madison, WI, USA) and ROS-Glo H2O2 Assay (Promega, Madison, WI, USA), respectively, based on the manufacturer instructions. In NADPH/NADP+ assay, CRC cells were seeded into a 96-well flat-bottomed plate and incubated overnight. On the following day, cells were treated with the testing compound or vehicle for 48 h. At the endpoint of treatment, the media were aspirated and replaced with 60 µl PBS/well, then cells were lysed in 60 µl base solution with 1% dodecyl (trimethyl) ammonium bromide (Sigma-Aldrich-St. Louis, MO, USA). […] Luminescence was measured after 30 minutes using Varioskan Flash multimode reader (Thermo Scientific). […] Luminescence was measured after 20 min incubation at room temperature."}, "HT-29 [2]": {"tested_on": "HT-29", "assay": "ROS-Glo H2O2 assay, HT-29", "format": "cell-based, Human", "details": "HT-29, 6 h incubation", "from_the_text": "as §1, §2"}, "[3]": {"tested_on": "normal fibroblast cell line (F180)", "assay": "MTT cell viability, normal fibroblasts F180", "format": "cell-based", "details": "Homo sapiens, read-out: IC50 on normal cells", "protocol": "The potential cytotoxicity of 24 candidate compounds was initially evaluated at a single concentration level (5 μM). Then a full dose-response curve was plotted for each compound against different colorectal cancer cell lines (HCT116 and HT-29) by MTT assay after 72 h treatments. 4-hydroxycoumarin, OSU-CG5, and OSU-CG12 were used as positive controls. […] Compounds 9b, 9c, 9f, 9i, 11b, and 11c were selected for further studies to determine the full dose-response survival curves using different concentrations (0.1–20 µM) against CRC cell lines and normal fibroblast cell line (F180) at different time points (Fig. 2A–2F and supplementary material Page S63 and S64).\nHuman colorectal carcinoma cell lines (HCT116) and (HT-29) were obtained from the European Collection of Cell Cultures (ECACC, UK). The cell lines were cultured in Roswell Park Memorial Institute medium (RPMI-1640, Sigma-Aldrich-St. Louis, MO, USA) supplemented with 10% fetal bovine serum (Sigma-Aldrich-St. Louis, MO, USA) and 1% penicillin/streptomycin (Sigma-Aldrich- Louis, MO, USA). […]\nCell viability was assessed using, 3-(4,5-dimethylthiazol-2-yl)-2,5-diphenyltetrazolium bromide (MTT) assay as previously described. […] The reduced MTT crystals were solubilized in 200 µl/well of DMSO and the absorbance was measured at 570 nm using a microplate reader (Thermo-Scientific, Vantaa, Finland)."}},
  "data": [
    {"smiles": "Cc1cc(=O)oc2cc(Nc3nc(-c4ccc(Br)cc4)cs3)ccc12", "note": "[Compound 9b, 7-(4-(4-Bromophenyl)thiazol-2-ylamino)-4-methyl-2H-chromen-2-one]", "values": [
      {"measurement": "glucose uptake", "setting": "HT-29 [1]", "value": "inhibited significantly"},
      {"measurement": "generation of hydrogen peroxide (H2O2) and ROS", "setting": "HCT116", "value": "significantly increased"},
      {"measurement": "generation of hydrogen peroxide (H2O2) and ROS", "setting": "HT-29 [2]", "value": "significantly increased"}
    ]},
    {"smiles": "Cc1cc(=O)oc2cc(Nc3nc(-c4cccc([N+](=O)[O-])c4)cs3)ccc12", "note": "[Compound 9f, 4-Methyl-7-(4-(3-Nitrophenyl)thiazol-2-ylamino)-2H-chromen-2-one]", "values": [
      {"measurement": "glucose uptake", "setting": "HT-29 [1]", "value": "inhibited significantly"},
      {"measurement": "generation of hydrogen peroxide (H2O2) and ROS", "setting": "HCT116", "value": "significantly increased"},
      {"measurement": "IC50", "setting": "[3]", "value": 7.97, "unit": "µM"}
    ]}
  ]
}
